Measurements reported in ChEMBL document CHEMBL5260810, “Inhibition of bromodomain-containing protein 9 for the prevention of epigenetically-defined drug resistance” (Bioorg Med Chem Lett, 2017).

target: Tyrosine-protein kinase ABL1 (Homo sapiens) (UniProt P00519); assay: Inhibition of Abl (unknown origin) at 1 uM relative to control; conditions: not given

SMILES	inhibition [%]
C/C=C/Cn1cc(-c2ccc(C(=O)N3CCOCC3)cc2)c2cc[nH]c2c1=O	-4.2

target: Bromodomain-containing protein 4 (Homo sapiens, UniProt O60885); assay: Binding affinity to full length BRD4 short isoform (unknown origin) by BROMOscan assay; conditions: not given

SMILES	Kd [µM]
C/C=C/Cn1cc(-c2cc(OC)c(C(C)(C)O)cc2OC)c2cc(C)[nH]c2c1=O	> 10
C/C=C/Cn1cc(-c2ccc(C(=O)N3CCOCC3)cc2)c2cc[nH]c2c1=O	1.2

tested on: JeKo-1; assay: Cytotoxicity against human JeKo-1 cells measured after 8 days; type: functional, cell-based; conditions: JeKo-1, 192 h

SMILES	IC50 [µM]
C/C=C/Cn1cc(-c2ccc(C(=O)N3CCOCC3)cc2)c2cc[nH]c2c1=O	9.95

target: Ribosomal protein S6 kinase alpha-2 (Homo sapiens) (UniProt Q15349); assay: Inhibition of RSK3 (unknown origin) at 1 uM relative to control; conditions: not given

SMILES	inhibition [%]
C/C=C/Cn1cc(-c2ccc(C(=O)N3CCOCC3)cc2)c2cc[nH]c2c1=O	-4.3

tested on: not listed separately; assay: Cytotoxicity against human HCC2279 cells measured after 8 days; type: functional, cell-based; conditions: HCC2279, 192 h

SMILES	IC50 [µM]
C/C=C/Cn1cc(-c2ccc(C(=O)N3CCOCC3)cc2)c2cc[nH]c2c1=O	20

target: Transcription initiation factor TFIID subunit 1 (Homo sapiens, UniProt P21675); assay: Displacement of biotinylated small-molecule ligand from recombinant His-tagged TAF1 bromodomain 2 (unknown origin) measured after 10 mins by TR-FRET assay; conditions: not given
Sequence (P21675 whole entry): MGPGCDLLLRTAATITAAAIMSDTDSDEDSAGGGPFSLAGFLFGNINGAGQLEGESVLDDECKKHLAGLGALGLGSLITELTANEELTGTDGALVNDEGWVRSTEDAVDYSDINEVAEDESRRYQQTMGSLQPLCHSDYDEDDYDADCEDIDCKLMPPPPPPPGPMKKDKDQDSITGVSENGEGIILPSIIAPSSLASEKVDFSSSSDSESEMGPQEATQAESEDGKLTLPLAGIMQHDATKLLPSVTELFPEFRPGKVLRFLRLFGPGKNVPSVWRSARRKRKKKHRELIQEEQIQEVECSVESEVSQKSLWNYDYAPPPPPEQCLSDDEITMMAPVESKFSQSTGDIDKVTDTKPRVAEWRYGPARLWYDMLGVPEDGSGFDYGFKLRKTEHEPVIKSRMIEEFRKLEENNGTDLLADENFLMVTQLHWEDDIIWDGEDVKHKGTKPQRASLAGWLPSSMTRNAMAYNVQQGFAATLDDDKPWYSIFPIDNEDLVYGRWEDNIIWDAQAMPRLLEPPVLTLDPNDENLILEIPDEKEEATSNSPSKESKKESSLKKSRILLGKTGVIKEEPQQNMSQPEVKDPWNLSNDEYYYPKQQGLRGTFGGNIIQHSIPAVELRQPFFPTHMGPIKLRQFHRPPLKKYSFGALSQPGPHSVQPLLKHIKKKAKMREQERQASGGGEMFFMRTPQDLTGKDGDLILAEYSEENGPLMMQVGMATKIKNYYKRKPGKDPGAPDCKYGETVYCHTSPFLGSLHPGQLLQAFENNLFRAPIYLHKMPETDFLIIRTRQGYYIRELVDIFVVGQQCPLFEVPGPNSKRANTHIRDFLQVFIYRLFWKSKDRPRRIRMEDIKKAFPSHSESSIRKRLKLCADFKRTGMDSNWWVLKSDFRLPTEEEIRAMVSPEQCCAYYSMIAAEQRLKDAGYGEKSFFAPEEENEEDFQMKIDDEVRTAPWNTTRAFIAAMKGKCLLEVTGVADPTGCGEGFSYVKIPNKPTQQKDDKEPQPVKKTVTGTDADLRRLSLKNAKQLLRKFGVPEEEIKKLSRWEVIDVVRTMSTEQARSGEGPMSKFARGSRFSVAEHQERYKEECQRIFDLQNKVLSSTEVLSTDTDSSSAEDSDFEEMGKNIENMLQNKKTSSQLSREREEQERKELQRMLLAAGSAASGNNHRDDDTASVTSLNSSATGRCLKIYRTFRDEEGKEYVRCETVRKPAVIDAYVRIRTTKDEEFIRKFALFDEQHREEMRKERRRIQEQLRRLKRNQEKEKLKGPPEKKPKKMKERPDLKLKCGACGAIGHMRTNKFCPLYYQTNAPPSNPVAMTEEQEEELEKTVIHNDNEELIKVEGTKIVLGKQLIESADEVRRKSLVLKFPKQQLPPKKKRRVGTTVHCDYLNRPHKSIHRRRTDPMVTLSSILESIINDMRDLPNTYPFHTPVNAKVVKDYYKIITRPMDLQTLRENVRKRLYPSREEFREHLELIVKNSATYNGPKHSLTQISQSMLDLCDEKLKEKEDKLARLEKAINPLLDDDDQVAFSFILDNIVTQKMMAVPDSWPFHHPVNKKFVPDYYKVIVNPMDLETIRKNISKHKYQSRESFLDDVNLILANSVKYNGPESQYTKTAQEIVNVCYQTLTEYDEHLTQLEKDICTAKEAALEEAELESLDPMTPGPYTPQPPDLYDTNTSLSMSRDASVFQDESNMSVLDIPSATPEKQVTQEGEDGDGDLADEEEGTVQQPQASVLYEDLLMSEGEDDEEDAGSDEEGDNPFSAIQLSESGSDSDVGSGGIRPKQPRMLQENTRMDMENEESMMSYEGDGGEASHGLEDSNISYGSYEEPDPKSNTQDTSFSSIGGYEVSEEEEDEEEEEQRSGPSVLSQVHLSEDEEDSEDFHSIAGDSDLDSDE

SMILES	IC50 [µM]
C/C=C/Cn1cc(-c2cc(OC)c(C(C)(C)O)cc2OC)c2cc(C)[nH]c2c1=O	> 20
C/C=C/Cn1cc(-c2ccc(C(=O)N3CCOCC3)cc2)c2cc[nH]c2c1=O	1.5

tested on: LNCaP; assay: Cytotoxicity against human LNCaP/Ner cells measured after 8 days; type: functional, cell-based; conditions: 192 h

SMILES	IC50 [µM]
C/C=C/Cn1cc(-c2ccc(C(=O)N3CCOCC3)cc2)c2cc[nH]c2c1=O	16.7

tested on: UMC-11; assay: Cytotoxicity against human UMC-11 cells measured after 8 days; type: functional, cell-based; conditions: UMC-11, 192 h

SMILES	IC50 [µM]
C/C=C/Cn1cc(-c2ccc(C(=O)N3CCOCC3)cc2)c2cc[nH]c2c1=O	20

tested on: not listed separately; assay: Cytotoxicity against human NCI-H2023 cells measured after 8 days; type: functional, cell-based; conditions: NCI-H2023, 192 h

SMILES	IC50 [µM]
C/C=C/Cn1cc(-c2ccc(C(=O)N3CCOCC3)cc2)c2cc[nH]c2c1=O	20

target: Chromatin remodeling regulator CECR2 (Homo sapiens, UniProt Q9BXF3); assay: Displacement of biotinylated small-molecule ligand from recombinant His-tagged CECR2 (unknown origin) measured after 10 mins by TR-FRET assay; conditions: not given
Sequence (Q9BXF3 whole entry): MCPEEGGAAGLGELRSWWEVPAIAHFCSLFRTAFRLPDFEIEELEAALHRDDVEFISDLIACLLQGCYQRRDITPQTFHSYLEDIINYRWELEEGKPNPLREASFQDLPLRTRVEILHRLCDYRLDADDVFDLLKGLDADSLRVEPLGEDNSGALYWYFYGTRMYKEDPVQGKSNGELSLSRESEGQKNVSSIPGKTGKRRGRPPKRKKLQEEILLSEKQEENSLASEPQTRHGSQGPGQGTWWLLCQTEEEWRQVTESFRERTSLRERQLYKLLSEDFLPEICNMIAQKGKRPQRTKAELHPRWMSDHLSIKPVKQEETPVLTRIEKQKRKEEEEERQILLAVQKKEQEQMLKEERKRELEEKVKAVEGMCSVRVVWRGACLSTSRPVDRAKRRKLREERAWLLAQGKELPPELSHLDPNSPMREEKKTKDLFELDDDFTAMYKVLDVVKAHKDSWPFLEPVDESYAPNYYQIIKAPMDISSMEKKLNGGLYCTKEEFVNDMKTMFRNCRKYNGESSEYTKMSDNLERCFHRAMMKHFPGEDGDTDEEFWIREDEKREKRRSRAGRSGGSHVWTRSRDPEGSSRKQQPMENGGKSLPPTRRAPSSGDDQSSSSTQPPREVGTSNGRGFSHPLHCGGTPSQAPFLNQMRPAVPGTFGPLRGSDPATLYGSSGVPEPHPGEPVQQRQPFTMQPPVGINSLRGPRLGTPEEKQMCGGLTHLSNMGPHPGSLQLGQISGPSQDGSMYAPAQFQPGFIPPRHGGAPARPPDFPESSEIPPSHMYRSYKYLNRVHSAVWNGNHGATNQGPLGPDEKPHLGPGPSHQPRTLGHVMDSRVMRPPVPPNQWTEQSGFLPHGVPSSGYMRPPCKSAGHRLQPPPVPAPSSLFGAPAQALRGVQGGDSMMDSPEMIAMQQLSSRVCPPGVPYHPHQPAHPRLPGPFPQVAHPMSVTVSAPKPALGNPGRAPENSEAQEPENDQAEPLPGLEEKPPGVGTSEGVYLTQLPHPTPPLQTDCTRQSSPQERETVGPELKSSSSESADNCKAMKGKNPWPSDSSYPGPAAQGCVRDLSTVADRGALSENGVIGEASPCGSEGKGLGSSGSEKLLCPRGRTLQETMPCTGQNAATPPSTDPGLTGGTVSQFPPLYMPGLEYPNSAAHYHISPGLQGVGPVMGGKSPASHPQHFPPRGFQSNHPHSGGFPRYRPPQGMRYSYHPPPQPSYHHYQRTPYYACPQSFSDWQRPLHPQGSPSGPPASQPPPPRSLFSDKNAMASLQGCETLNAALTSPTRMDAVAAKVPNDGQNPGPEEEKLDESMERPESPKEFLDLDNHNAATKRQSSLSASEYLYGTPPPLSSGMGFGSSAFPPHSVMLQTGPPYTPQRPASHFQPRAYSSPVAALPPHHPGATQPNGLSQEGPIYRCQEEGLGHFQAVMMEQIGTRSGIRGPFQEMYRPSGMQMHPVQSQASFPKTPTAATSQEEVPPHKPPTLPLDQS

SMILES	IC50 [µM]
C/C=C/Cn1cc(-c2cc(OC)c(C(C)(C)O)cc2OC)c2cc(C)[nH]c2c1=O	4.3
C/C=C/Cn1cc(-c2ccc(C(=O)N3CCOCC3)cc2)c2cc[nH]c2c1=O	2.9

target: T1, Interleukin-1 receptor-associated kinase 4 (Homo sapiens) (UniProt Q9NWZ3); assay: Inhibition of IRAK4 (unknown origin) at 1 uM relative to control; conditions: not given
T1 sequence (whole entry): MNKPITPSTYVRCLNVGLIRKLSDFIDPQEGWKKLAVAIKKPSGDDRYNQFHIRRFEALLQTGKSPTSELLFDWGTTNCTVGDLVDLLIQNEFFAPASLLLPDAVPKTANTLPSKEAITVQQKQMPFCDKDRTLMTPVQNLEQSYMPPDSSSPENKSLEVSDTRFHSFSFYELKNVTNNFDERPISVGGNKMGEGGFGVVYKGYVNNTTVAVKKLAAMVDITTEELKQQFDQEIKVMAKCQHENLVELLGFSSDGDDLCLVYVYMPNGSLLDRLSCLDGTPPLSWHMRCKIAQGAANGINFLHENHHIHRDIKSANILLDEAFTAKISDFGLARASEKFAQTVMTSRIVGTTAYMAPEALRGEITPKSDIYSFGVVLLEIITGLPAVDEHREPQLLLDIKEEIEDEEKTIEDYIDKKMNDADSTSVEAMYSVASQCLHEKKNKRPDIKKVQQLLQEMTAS

SMILES	inhibition [%]
C/C=C/Cn1cc(-c2ccc(C(=O)N3CCOCC3)cc2)c2cc[nH]c2c1=O	-4.9

tested on: NCI-H1838; assay: Cytotoxicity against human NCI-H1838 cells measured after 8 days; type: functional, cell-based; conditions: NCI-H1838, 192 h

SMILES	IC50 [µM]
C/C=C/Cn1cc(-c2ccc(C(=O)N3CCOCC3)cc2)c2cc[nH]c2c1=O	20

target: Serine/threonine-protein kinase pim-1 (Homo sapiens) (UniProt P11309); assay: Inhibition of PIM1 (unknown origin) at 1 uM relative to control; conditions: not given

SMILES	inhibition [%]
C/C=C/Cn1cc(-c2ccc(C(=O)N3CCOCC3)cc2)c2cc[nH]c2c1=O	-3.4

tested on: not listed separately; assay: Cytotoxicity against human SNU-719 cells measured after 8 days; type: functional, cell-based; conditions: SNU-719, 192 h

SMILES	IC50 [µM]
C/C=C/Cn1cc(-c2ccc(C(=O)N3CCOCC3)cc2)c2cc[nH]c2c1=O	20

tested on: BJAB; assay: Cytotoxicity against human BJAB cells measured after 8 days; type: functional, cell-based; conditions: 192 h

SMILES	IC50 [µM]
C/C=C/Cn1cc(-c2ccc(C(=O)N3CCOCC3)cc2)c2cc[nH]c2c1=O	16.5

target: Adrenergic receptor alpha-1 (Rattus norvegicus) (UniProt P15823+P23944+P43140); assay: Displacement of [3H]-prazosin from rat alpha1 adrenoceptor at 10 uM after 60 mins by scintillation counting analysis relative to control; type: protein assay; conditions: not given

SMILES	Activity [%]
C/C=C/Cn1cc(-c2ccc(C(=O)N3CCOCC3)cc2)c2cc[nH]c2c1=O	7

tested on: SR; assay: Cytotoxicity against human SR cells measured after 8 days; type: functional, cell-based; conditions: 192 h

SMILES	IC50 [µM]
C/C=C/Cn1cc(-c2ccc(C(=O)N3CCOCC3)cc2)c2cc[nH]c2c1=O	20

tested on: MC116; assay: Cytotoxicity against human MC116 cells measured after 8 days; type: functional, cell-based; conditions: MC116, 192 h

SMILES	IC50 [µM]
C/C=C/Cn1cc(-c2ccc(C(=O)N3CCOCC3)cc2)c2cc[nH]c2c1=O	10.2

target: Protein polybromo-1 (Homo sapiens, UniProt Q86U86); assay: Binding affinity to human partial length PBRM1 bromodomain 1 (S178 to E291 residues) expressed in bacterial expression system by BROMOscan assay; conditions: not given
Sequence (Q86U86 whole entry, the tested form may be a part): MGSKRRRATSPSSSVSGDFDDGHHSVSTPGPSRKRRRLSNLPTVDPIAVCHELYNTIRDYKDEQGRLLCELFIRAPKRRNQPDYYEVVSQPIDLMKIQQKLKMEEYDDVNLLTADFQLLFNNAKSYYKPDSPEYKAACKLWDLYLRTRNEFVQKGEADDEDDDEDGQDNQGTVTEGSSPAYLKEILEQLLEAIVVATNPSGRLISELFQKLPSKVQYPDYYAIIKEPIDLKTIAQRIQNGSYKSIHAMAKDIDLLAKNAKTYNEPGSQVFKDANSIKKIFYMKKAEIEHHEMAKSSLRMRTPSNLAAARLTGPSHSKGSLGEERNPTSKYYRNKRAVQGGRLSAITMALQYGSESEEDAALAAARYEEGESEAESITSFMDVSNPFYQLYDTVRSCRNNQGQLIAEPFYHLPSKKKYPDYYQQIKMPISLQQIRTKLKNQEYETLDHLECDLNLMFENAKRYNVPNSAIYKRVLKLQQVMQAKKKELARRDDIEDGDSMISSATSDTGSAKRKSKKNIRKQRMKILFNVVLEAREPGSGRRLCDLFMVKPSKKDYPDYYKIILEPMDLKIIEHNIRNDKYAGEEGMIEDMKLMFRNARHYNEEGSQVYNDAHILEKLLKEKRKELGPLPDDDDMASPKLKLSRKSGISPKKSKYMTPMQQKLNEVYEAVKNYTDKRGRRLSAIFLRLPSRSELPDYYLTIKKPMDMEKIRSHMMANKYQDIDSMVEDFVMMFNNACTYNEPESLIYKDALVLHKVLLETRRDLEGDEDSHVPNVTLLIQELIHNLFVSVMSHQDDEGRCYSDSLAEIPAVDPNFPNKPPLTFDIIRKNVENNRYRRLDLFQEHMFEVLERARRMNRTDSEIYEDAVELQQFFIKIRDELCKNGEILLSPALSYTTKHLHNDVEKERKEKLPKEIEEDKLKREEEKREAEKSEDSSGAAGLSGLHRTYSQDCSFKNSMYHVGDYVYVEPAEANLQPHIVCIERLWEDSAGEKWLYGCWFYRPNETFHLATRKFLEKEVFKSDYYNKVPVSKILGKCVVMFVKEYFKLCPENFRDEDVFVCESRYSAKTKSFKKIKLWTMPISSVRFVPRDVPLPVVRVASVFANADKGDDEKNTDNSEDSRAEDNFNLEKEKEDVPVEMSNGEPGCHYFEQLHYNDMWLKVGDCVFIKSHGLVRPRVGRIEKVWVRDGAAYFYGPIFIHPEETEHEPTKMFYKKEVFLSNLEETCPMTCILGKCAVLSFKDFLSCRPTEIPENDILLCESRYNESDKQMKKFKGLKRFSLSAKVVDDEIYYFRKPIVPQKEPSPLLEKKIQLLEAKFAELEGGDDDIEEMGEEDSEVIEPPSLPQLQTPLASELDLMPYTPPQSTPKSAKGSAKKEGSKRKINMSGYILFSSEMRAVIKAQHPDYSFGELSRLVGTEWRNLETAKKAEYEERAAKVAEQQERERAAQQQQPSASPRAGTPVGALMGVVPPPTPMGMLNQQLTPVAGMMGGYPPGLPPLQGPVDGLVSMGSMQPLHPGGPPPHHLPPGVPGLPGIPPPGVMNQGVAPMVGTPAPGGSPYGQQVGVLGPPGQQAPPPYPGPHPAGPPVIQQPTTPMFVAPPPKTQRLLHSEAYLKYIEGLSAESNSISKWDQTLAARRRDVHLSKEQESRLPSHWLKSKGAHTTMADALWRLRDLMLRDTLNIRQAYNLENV

SMILES	Kd [µM]
C/C=C/Cn1cc(-c2cc(OC)c(C(C)(C)O)cc2OC)c2cc(C)[nH]c2c1=O	> 10
C/C=C/Cn1cc(-c2ccc(C(=O)N3CCOCC3)cc2)c2cc[nH]c2c1=O	> 10

tested on: AMO1; assay: Cytotoxicity against human AMO1 cells measured after 8 days; type: functional, cell-based; conditions: AMO1, 192 h

SMILES	IC50 [µM]
C/C=C/Cn1cc(-c2ccc(C(=O)N3CCOCC3)cc2)c2cc[nH]c2c1=O	20

tested on: HCC38; assay: Cytotoxicity against human HCC38 cells measured after 8 days; type: functional, cell-based; conditions: HCC38, 192 h

SMILES	IC50 [µM]
C/C=C/Cn1cc(-c2ccc(C(=O)N3CCOCC3)cc2)c2cc[nH]c2c1=O	20

target: T2, Adenosine receptor A1 (Homo sapiens) (UniProt P30542); assay: Displacement of [3H]-DPCPX from human recombinant adenosine A1 receptor at 10 uM after 60 mins by scintillation counting analysis relative to control; conditions: not given
T2 sequence (whole entry): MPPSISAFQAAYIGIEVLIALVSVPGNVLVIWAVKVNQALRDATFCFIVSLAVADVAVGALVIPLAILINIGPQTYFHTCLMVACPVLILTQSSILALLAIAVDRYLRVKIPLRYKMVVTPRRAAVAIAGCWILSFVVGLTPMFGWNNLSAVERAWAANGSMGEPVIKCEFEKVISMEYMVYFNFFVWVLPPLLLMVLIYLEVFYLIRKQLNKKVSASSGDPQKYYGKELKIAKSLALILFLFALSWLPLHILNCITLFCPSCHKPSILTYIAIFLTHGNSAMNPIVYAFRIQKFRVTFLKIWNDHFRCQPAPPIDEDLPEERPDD

SMILES	Activity [%]
C/C=C/Cn1cc(-c2ccc(C(=O)N3CCOCC3)cc2)c2cc[nH]c2c1=O	10

tested on: HCC95; assay: Cytotoxicity against human HCC95 cells measured after 8 days; type: functional, cell-based; conditions: HCC95, 192 h

SMILES	IC50 [µM]
C/C=C/Cn1cc(-c2ccc(C(=O)N3CCOCC3)cc2)c2cc[nH]c2c1=O	20

target: Histone acetyltransferase KAT2B (Homo sapiens, UniProt Q92831); assay: Binding affinity to human partial length PCAF (G715 to D831 residues) expressed in bacterial expression system by BROMOscan assay; conditions: not given

SMILES	Kd [µM]
C/C=C/Cn1cc(-c2cc(OC)c(C(C)(C)O)cc2OC)c2cc(C)[nH]c2c1=O	> 10
C/C=C/Cn1cc(-c2ccc(C(=O)N3CCOCC3)cc2)c2cc[nH]c2c1=O	> 10

tested on: NCI-H82; assay: Cytotoxicity against human NCI-H82 cells measured after 8 days; type: functional, cell-based; conditions: NCI-H82, 192 h

SMILES	IC50 [µM]
C/C=C/Cn1cc(-c2ccc(C(=O)N3CCOCC3)cc2)c2cc[nH]c2c1=O	20

tested on: COLO-678; assay: Cytotoxicity against human COLO-678 cells measured after 8 days; type: functional, cell-based; conditions: COLO-678, 192 h

SMILES	IC50 [µM]
C/C=C/Cn1cc(-c2ccc(C(=O)N3CCOCC3)cc2)c2cc[nH]c2c1=O	20

species on record: Rattus norvegicus; assay: Displacement of [125I]alpha-dendrotoxin from rat brain voltage-gated K channel at 10 uM after 60 mins by scintillation counting analysis relative to control; conditions: not given

SMILES	Activity [%]
C/C=C/Cn1cc(-c2ccc(C(=O)N3CCOCC3)cc2)c2cc[nH]c2c1=O	0

tested on: DB; assay: Cytotoxicity against human DB cells measured after 8 days; type: functional, cell-based; conditions: 192 h

SMILES	IC50 [µM]
C/C=C/Cn1cc(-c2ccc(C(=O)N3CCOCC3)cc2)c2cc[nH]c2c1=O	20

tested on: HT; assay: Cytotoxicity against human HT cells measured after 8 days; type: functional, cell-based; conditions: 192 h

SMILES	IC50 [µM]
C/C=C/Cn1cc(-c2ccc(C(=O)N3CCOCC3)cc2)c2cc[nH]c2c1=O	20

tested on: MDA-MB-436; assay: Cytotoxicity against human MDA-MB-436 cells measured after 8 days; type: functional, cell-based; conditions: MDA-MB-436, 192 h

SMILES	IC50 [µM]
C/C=C/Cn1cc(-c2ccc(C(=O)N3CCOCC3)cc2)c2cc[nH]c2c1=O	20

tested on: HPAC; assay: Cytotoxicity against human HPAC cells measured after 8 days; type: functional, cell-based; conditions: 192 h

SMILES	IC50 [µM]
C/C=C/Cn1cc(-c2ccc(C(=O)N3CCOCC3)cc2)c2cc[nH]c2c1=O	20

tested on: NCI-H1581; assay: Cytotoxicity against human NCI-H1581 cells measured after 8 days; type: functional, cell-based; conditions: NCI-H1581, 192 h

SMILES	IC50 [µM]
C/C=C/Cn1cc(-c2ccc(C(=O)N3CCOCC3)cc2)c2cc[nH]c2c1=O	20

target: Dual specificity mitogen-activated protein kinase kinase 1 (Homo sapiens) (UniProt Q02750); assay: Inhibition of MEK1 (unknown origin) at 1 uM relative to control; conditions: not given

SMILES	inhibition [%]
C/C=C/Cn1cc(-c2ccc(C(=O)N3CCOCC3)cc2)c2cc[nH]c2c1=O	3

tested on: Calu-3; assay: Cytotoxicity against human Calu-3 cells measured after 8 days; type: functional, cell-based; conditions: Calu-3, 192 h

SMILES	IC50 [µM]
C/C=C/Cn1cc(-c2ccc(C(=O)N3CCOCC3)cc2)c2cc[nH]c2c1=O	20

tested on: LNCaP; assay: Cytotoxicity against human LNCaP clone FGC cells measured after 8 days; type: functional, cell-based; conditions: 192 h

SMILES	IC50 [µM]
C/C=C/Cn1cc(-c2ccc(C(=O)N3CCOCC3)cc2)c2cc[nH]c2c1=O	16.5

tested on: Hs 294T; assay: Cytotoxicity against human Hs294T cells measured after 8 days; type: functional, cell-based; conditions: 192 h

SMILES	IC50 [µM]
C/C=C/Cn1cc(-c2ccc(C(=O)N3CCOCC3)cc2)c2cc[nH]c2c1=O	20

target: 5-hydroxytryptamine receptor 4 (Homo sapiens) (UniProt Q13639); assay: Inhibition of human 5HT4e at 10 uM relative to control; conditions: not given

SMILES	inhibition [%]
C/C=C/Cn1cc(-c2ccc(C(=O)N3CCOCC3)cc2)c2cc[nH]c2c1=O	2
